In US20220054575A1, “PROTECTION AGAINST CORONAVIRUS INFECTION BY EXTRACTS AND EXTRACT COMPONENTS” (Natreon, Inc., priority 2020, published 2022):

Assay: Solubility (description)
Type: physicochemical
Conditions: for solubility in organic solvent: DMSO / DMF

SMILES: O=c1oc2cc(O)ccc2c2ccc(O)cc12 [3,8-dihydroxy-6H-benzo[c]chromen-6-one]
- solubility in organic solvent: soluble in DMSO
- solubility in water: largely insoluble in water

SMILES: O=c1oc2cc(O)ccc2c2ccccc12 [3-hydroxy-6H-benzo[c]chromen-6-one]
- solubility in organic solvent: soluble in DMSO and DMF
- solubility in water: largely insoluble in water
